Measurements from ChEMBL document CHEMBL5291721, “A preclinical secondary pharmacology resource illuminates target-adverse drug reaction associations of marketed drugs” (Nat Commun, 2023).

Assays:
[1] = target: T1, Equilibrative nucleoside transporter 1 (Homo sapiens, UniProt Q99808)
T1 sequence (Q99808 whole entry): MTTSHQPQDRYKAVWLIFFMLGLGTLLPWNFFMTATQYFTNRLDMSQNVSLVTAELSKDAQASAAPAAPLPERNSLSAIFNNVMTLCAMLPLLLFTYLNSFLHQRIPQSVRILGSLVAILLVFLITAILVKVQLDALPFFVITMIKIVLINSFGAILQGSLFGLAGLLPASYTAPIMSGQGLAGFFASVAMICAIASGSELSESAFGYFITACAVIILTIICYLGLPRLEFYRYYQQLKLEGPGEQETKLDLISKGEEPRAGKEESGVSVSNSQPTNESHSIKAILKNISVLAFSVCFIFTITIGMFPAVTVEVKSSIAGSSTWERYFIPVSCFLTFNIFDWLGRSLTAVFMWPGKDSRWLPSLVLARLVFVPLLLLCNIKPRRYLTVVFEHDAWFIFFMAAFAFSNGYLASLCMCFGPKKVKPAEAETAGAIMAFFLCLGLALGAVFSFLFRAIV

[2] = target: T2, Alpha-1A adrenergic receptor (Homo sapiens, UniProt P35348); assay type: functional, cell-based
T2 sequence (P35348 whole entry): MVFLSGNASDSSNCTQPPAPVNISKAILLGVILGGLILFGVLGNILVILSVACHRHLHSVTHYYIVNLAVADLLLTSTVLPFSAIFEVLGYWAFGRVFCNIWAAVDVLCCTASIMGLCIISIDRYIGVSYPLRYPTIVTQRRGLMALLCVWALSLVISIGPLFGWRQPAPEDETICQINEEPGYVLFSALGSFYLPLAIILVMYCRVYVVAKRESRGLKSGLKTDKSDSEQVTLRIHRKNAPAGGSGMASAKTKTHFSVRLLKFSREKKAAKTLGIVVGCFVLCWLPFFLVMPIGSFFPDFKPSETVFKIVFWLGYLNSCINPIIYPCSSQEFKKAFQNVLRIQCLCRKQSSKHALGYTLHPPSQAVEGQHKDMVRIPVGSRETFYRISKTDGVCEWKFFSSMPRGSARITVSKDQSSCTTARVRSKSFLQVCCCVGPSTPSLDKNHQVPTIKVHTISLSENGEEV

[3] = target: T3, Alpha-2A adrenergic receptor (Homo sapiens, UniProt P08913); assay type: functional, cell-based
T3 sequence (P08913 whole entry): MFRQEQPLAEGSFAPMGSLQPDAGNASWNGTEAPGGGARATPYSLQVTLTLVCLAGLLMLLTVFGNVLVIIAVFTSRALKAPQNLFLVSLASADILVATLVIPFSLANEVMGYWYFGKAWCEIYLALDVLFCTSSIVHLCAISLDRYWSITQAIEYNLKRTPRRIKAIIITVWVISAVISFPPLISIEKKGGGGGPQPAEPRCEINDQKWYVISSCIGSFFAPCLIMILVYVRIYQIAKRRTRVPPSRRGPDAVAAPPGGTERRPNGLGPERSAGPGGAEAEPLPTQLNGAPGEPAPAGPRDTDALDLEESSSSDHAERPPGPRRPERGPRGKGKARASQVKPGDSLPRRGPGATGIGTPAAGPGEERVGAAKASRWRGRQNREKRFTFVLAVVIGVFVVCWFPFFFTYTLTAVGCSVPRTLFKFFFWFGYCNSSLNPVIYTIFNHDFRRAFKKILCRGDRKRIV

[4] = target: Voltage-dependent L-type calcium channel subunit alpha-1C (Rattus norvegicus, UniProt P22002); assay type: functional
Voltage-dependent L-type calcium channel subunit alpha-1C, sequence (P22002 whole entry): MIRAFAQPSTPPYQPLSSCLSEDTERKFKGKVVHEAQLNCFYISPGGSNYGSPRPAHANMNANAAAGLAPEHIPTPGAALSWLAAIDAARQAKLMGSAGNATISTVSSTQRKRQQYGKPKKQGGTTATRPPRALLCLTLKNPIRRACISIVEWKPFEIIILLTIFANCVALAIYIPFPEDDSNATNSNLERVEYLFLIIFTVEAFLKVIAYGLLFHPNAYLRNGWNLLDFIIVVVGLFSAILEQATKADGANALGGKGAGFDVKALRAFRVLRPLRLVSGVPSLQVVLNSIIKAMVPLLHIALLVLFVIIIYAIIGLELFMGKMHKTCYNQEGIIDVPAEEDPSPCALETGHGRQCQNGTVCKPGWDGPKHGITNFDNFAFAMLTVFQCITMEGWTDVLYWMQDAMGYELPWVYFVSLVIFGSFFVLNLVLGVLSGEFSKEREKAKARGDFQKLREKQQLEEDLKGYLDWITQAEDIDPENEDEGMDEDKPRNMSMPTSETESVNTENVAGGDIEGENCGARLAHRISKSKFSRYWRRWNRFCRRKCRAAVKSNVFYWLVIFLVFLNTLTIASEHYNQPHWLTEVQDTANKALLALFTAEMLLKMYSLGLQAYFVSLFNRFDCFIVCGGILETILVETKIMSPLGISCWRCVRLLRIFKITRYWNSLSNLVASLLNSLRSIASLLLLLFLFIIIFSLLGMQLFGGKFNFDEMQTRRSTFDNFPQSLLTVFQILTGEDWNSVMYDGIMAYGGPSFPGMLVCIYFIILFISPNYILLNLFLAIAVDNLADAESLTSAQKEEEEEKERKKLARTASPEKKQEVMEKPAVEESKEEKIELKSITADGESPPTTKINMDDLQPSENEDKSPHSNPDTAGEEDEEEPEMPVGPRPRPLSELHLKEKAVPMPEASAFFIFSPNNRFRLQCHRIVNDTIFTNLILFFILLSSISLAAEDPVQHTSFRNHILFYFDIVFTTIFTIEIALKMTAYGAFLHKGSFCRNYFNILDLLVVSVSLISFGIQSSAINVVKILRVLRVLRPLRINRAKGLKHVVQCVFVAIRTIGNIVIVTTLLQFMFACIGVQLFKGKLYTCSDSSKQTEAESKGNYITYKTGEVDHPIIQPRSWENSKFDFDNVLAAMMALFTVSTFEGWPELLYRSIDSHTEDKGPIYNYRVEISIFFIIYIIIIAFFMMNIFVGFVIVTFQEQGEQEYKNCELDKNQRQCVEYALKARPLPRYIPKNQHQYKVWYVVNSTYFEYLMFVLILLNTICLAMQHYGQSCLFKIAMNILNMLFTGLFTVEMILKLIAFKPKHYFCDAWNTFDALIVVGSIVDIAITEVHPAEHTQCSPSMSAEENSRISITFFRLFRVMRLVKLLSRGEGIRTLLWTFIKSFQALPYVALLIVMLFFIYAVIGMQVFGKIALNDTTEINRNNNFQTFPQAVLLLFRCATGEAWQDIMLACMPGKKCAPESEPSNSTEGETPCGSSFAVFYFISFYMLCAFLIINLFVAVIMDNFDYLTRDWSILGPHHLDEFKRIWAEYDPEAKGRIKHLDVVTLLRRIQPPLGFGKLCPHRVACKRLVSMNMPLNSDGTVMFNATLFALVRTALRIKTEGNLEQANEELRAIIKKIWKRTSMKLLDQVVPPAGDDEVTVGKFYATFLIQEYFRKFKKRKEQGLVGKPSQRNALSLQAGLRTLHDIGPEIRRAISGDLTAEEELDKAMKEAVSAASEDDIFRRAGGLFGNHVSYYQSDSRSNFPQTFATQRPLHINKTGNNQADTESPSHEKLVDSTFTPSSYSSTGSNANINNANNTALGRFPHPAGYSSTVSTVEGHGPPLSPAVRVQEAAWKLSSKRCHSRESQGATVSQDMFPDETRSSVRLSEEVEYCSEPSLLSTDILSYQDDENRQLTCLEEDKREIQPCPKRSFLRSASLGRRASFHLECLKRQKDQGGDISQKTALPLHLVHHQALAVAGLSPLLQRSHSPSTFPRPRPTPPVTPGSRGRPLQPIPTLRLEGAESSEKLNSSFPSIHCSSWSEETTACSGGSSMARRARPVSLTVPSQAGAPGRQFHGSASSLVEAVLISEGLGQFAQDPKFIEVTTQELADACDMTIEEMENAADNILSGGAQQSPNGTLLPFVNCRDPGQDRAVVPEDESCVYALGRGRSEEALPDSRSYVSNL

[5] = target: T4, Adenosine receptor A3 (Homo sapiens, UniProt P0DMS8)
T4 sequence (P0DMS8 whole entry): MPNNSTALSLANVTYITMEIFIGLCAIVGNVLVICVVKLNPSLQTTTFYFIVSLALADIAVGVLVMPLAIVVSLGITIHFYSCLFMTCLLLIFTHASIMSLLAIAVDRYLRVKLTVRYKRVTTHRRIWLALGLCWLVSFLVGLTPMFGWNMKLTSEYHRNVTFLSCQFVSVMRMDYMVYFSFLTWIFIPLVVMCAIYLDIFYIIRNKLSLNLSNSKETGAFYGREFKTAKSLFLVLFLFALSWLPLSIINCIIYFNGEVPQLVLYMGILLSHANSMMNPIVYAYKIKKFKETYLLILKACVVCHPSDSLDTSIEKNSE

[6] = target: Adenosine receptor A2a (Homo sapiens, UniProt P29274)
Adenosine receptor A2a, sequence (P29274 whole entry): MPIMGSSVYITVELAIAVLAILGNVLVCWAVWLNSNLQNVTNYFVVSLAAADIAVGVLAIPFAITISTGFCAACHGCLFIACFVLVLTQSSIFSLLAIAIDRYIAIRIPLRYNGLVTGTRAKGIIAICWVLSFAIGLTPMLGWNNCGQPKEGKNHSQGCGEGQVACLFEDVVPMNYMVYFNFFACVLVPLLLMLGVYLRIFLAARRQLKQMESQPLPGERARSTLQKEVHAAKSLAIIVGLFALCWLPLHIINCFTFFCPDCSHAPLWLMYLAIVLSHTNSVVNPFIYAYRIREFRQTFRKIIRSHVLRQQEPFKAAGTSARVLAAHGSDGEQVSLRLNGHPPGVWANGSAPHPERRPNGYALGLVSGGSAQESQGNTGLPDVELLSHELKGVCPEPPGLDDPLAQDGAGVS

[7] = target: T5, Progesterone receptor (Homo sapiens, UniProt P06401); assay type: functional
T5 sequence (P06401 whole entry): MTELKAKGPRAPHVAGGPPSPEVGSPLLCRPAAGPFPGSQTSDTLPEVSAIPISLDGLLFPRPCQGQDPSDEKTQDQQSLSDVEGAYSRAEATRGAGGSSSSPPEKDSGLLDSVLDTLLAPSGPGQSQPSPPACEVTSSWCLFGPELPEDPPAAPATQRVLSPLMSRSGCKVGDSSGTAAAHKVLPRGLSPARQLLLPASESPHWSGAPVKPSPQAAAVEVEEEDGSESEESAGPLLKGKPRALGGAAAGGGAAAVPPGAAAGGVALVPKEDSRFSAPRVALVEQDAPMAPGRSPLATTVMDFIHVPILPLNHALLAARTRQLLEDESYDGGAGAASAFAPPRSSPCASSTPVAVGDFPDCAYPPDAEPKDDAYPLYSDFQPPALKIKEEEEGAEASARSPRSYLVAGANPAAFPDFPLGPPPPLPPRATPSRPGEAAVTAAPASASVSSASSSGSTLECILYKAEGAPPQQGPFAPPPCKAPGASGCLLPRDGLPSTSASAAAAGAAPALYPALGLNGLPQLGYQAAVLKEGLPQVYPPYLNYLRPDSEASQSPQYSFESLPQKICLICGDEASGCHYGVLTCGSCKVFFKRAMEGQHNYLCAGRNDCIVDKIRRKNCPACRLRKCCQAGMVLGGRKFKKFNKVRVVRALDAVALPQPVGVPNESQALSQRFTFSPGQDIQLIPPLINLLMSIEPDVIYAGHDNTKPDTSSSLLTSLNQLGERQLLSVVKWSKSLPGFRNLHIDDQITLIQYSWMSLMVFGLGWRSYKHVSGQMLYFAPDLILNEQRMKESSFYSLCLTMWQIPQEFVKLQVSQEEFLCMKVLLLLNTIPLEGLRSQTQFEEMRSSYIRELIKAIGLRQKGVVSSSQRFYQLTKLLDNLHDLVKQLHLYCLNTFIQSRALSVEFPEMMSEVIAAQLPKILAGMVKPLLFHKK
Also: assay procedure not described here.

| Compound | AC50 [1] [µM] | AC50 [2] [µM] | AC50 [3] [µM] | AC50 [4] [µM] | AC50 [5] [µM] | AC50 [6] [µM] | AC50 [7] [µM] |
| --- | --- | --- | --- | --- | --- | --- | --- |
| Oc1cc(O)c(Cl)cn1 | > 30 | > 30 | > 30 | > 30 | > 30 | > 30 |  |
| C[N+]12CCC(CC1)C(OC(=O)C(O)(c1ccccc1)c1ccccc1)C2 (stereo not given) |  | > 30 | > 30 |  | > 30 | > 30 | > 30 |
| Cc1cc(=O)n(-c2ccccc2)n1C [ANTIPYRINE] | > 30 | > 30 | > 10 | > 10 | > 30 | > 30 |  |
| CO/N=C(\C(=O)N[C@@H]1C(=O)N2C(C(=O)O)=CCS[C@H]12)c1csc(N)n1 [CEFTIZOXIME] | > 30 | > 30 | > 30 |  | > 30 | > 30 | 26 |
| CO/N=C(\C(=O)N[C@@H]1C(=O)N2C(C(=O)O)=C(CSc3nc(=O)c(=O)[nH]n3C)CS[C@H]12)c1csc(N)n1 [CEFTRIAXONE] | > 30 | > 30 | > 30 |  | > 30 | > 30 | 23 |
| COc1cc(N)c(Cl)cc1C(=O)NC1CCN(CCCOc2ccc(F)cc2)CC1OC (stereo not given) [CISAPRIDE] | > 30 | > 30 |  | > 10 | > 30 | > 30 |  |
| CCOC(=O)C(C)(C)Oc1ccc(Cl)cc1 [CLOFIBRATE] | > 30 | > 30 | > 10 | > 10 | > 30 | > 30 |  |
| C[C@@H]1C[C@H]2[C@@H]3CCC4=CC(=O)C=C[C@]4(C)[C@@]3(F)[C@@H](O)C[C@]2(C)[C@@]1(O)C(=O)CO [DEXAMETHASONE] | > 30 |  | > 10 | > 10 | > 30 | > 30 |  |
| CCCCOc1ccc(C(=O)CCN2CCCCC2)cc1 [DYCLONINE] | > 30 | > 30 | > 10 | > 10 | > 30 | > 30 |  |
| CC(C)NC[C@H](O)COc1ccc(CC(N)=O)cc1 [ESATENOLOL] | > 30 |  | > 10 |  | > 30 | > 30 |  |
| O=C1Nc2ccc(Cl)cc2C(c2ccccc2Cl)=NC1O (stereo not given) [LORAZEPAM] | > 30 | > 30 | > 10 | > 10 | > 30 | > 30 |  |
| CN1CCN=C(c2ccccc2)c2cc(Cl)ccc21 [MEDAZEPAM] |  | > 30 | > 30 | > 30 | 15 | > 30 |  |
| CC(=O)[C@H]1CC[C@H]2[C@@H]3C[C@H](C)C4=CC(=O)CC[C@]4(C)[C@H]3[C@@H](O)C[C@]12C [MEDRYSONE] | > 10 | > 30 | > 10 | > 10 | > 10 | > 10 |  |
| Cc1ccnc2c1NC(=O)c1cccnc1N2C1CC1 [NEVIRAPINE] | > 30 | > 30 | > 10 | > 10 | 1.02 | 15.2 |  |
| O=C(NCCO[N+](=O)[O-])c1cccnc1 [NICORANDIL] | > 30 | > 30 | > 30 |  | > 30 | > 30 | > 30 |
| CO[C@H]1C[C@H](O[C@H]2CC[C@@]3(C)[C@H](CC[C@@H]4[C@@H]3CC[C@]3(C)[C@@H](C5=CC(=O)OC5)[C@@H](OC(C)=O)C[C@]43O)C2)O[C@@H](C)[C@@H]1O [OLEANDRIN] |  | > 30 | > 30 |  |  |  |  |
| O=c1[nH]c2ccccc2n1CCCN1CCN(C(c2ccccc2)c2ccccc2)CC1 [OXATOMIDE] |  | > 30 | > 30 |  | 15 | > 30 | > 30 |
| C[C@]12C/C(=C/O)C(=O)C[C@@H]1CC[C@@H]1[C@@H]2CC[C@@]2(C)[C@H]1CC[C@]2(C)O [OXYMETHOLONE] |  | > 30 | > 30 |  | 8.2 | > 30 |  |
| COc1cc2[nH]c(C)c(CCN3CCN(c4ccccc4)CC3)c2cc1OC [OXYPERTINE] | > 30 | > 30 | > 30 |  | 20 | > 30 | > 30 |
| Fc1ccc([C@@H]2CCNC[C@H]2COc2ccc3c(c2)OCO3)cc1 [PAROXETINE] | > 30 |  |  | 2.5 | 22.5 | > 30 |  |
| c1ccc(C2(N3CCCCC3)CCCCC2)cc1 [PHENCYCLIDINE] | > 30 | > 30 | > 30 |  | > 30 | > 30 | > 30 |
| CCC(=O)O[C@](Cc1ccccc1)(c1ccccc1)[C@H](C)CN(C)C [PROPOXYPHENE] | > 30 | > 30 | > 10 | > 10 | > 30 | > 30 |  |
| O=c1c(O)c(-c2ccc(O)c(O)c2)oc2cc(O)cc(O)c12 [QUERCETIN] | > 30 |  | > 10 | > 10 | 4.2 | > 30 |  |
| CCN1CCCC1CNC(=O)c1cc(S(=O)(=O)CC)ccc1OC (stereo not given) [SULTOPRIDE] |  | > 30 | > 30 |  | > 30 | > 30 | > 30 |
| CCOC(=O)c1ccc(C#Cc2ccc3c(c2)C(C)(C)CCS3)nc1 [TAZAROTENE] | > 30 | > 30 | > 10 | > 10 | > 30 | > 30 |  |
| CCCCCCCC(=O)CC[C@@H]1[C@@H](C/C=C\CCCC(=O)OC(C)C)[C@@H](O)C[C@H]1O [UNOPROSTONE ISOPROPYL] |  |  |  |  | 5.6 |  | 21 |
